This is an account of results in PubChem BioAssay AID2305 (GlaxoSmithKline (GSK), 2010).

The test relates to P. falciparum 3D7 growth, pLDH absorbance. Briefly: P. falciparum 3D7 growth inhibition, dose response, strain 3D7 (AID 2305).

A word on the IC50: it is the concentration that inhibits the measured activity by half. Take `COc1cccc(CNC[C@@H](O)[C@H](Cc2ccccc2)NC(=O)c2cc(C3CCCC3)cc(N3CCCCS3(=O)=O)c2)c1`: the half-maximal inhibitory concentration (IC50) came out at 0.6 µM.

`O=C(/C=C/c1ccc(Cl)c(Cl)c1)NCCCCCN1CC[C@H](NC(=O)/C=C/c2ccccc2)C1` had an IC50 of 1 µM.

For the compound `COc1cc(-c2nc3ccc(N4CCN(C)CC4)cc3[nH]2)cc(OC)c1OC`, the IC50 was 1.27 µM.

For `O=C(Nc1ccc(N2CCN(c3ncccc3C(F)(F)F)CC2)nc1)c1cccs1`, the IC50 came to 1.19 µM.

`O=C(Nc1ccc(-c2cccc(-c3nc4ccccc4[nH]3)c2)cc1)N[C@@H]1C[C@H]1c1ccccc1` gave an IC50 of 0.63 µM.

Regarding `CC(C)NC(=O)c1cccc(-c2cccc(OCCN3CCSCC3c3ccccc3)c2)c1` (stereo not drawn), the concentration for half-maximal inhibition (IC50) worked out at 1.01 µM. In the case of `Cc1cc(N[C@@H](Cc2ccccc2)C(=O)NCc2cccs2)nc(Nc2ccccc2)n1` it was 1.24 µM. Next, `COc1cc(OC)c2c(C)cc(NCCCn3ccnc3)nc2c1`: 0.8 µM; `Cc1cccc2[nH]c(-c3ccc(-c4cccc(CNCCc5ccncc5)c4)s3)nc12`: 0.14 µM. The compound `FC(F)(F)c1ccc2nc(-c3cccc(-c4ccc(CNCCc5ccncc5)cc4)c3)[nH]c2c1` came in with a half-maximal inhibitory concentration (IC50) of 0.1 µM. In the case of `COc1c(Br)cc(Br)cc1-c1ccc(CN2C3CCCC2CCC3)[nH]1` it was 1.11 µM; in that of `O=S(=O)(NCCN1CCCC1)c1ccc(-c2ccc(CNC3Cc4ccccc4C3)cc2)cc1`, 0.66 µM. Next, `O=C1Nc2cccc3c2C1(CCCCN1CCC(c2c[nH]c4cc(C(F)(F)F)ccc24)CC1)CCC3` (stereo not drawn): 0.72 µM; `Cc1nc(-c2cccc(Nc3nccc(NCC(O)c4ccc(C(F)(F)F)cc4)n3)c2)cs1` (stereo not drawn): 0.51 µM; `CN(C)CCOc1ccc(-c2cc(-c3ccc(Cl)c(O)c3)c(-c3ccncc3)o2)cc1`: 1.45 µM. `O=C(Nc1cccc(-c2cccc(-c3nc4ccc(F)cc4[nH]3)c2)c1)c1ccncc1` returned an IC50 of 0.51 µM. Next, `CC1(CCCCN2CCC(Cc3ccccc3)CC2)C(=O)Nc2ccccc21` (stereo not drawn): 0.86 µM; `O=C(/C=C/c1ccc(Cl)c(Cl)c1)NC1CCC(CN2CCC(c3c[nH]c4cc(O)ccc34)CC2)CC1` (stereo not drawn): 0.81 µM; `Cc1ccccc1Nc1nc(NCCc2ccccc2)nc2ccccc12`: 1.26 µM.

Compound `Cc1cc(N[C@@H](CC(C)C)C(=O)NC2CCCC2)nc(NCCc2ccc(F)cc2)n1` displayed a 50% inhibitory concentration (IC50) of 0.79 µM.

For `COc1ccc2nccc([C@@H](O)CN3CCC(NC(=O)C(c4cc5ccccc5o4)N4CCN(Cc5ccccc5)CC4)CC3)c2c1` (stereo partly drawn), the IC50 was 0.16 µM. `FC(F)(F)c1ccc2c(NCCCNc3ccnc4cc(C(F)(F)F)ccc34)ccnc2c1`: the half-inhibitory concentration (IC50) was 0.03 µM.

`CC(=NNC(=S)Nc1ccccc1Cl)c1ccccn1` registered an IC50 of 0.08 µM. Turning to `CN1CCC(c2ccc(NC(=O)c3ccc(-c4cccc(C(F)(F)F)c4)o3)cc2)CC1`, the IC50 was 1.13 µM. Compound `Cc1c(C(C)(C)C)ccc2nc(N)nc(N)c12` returned an IC50 of 0.01 µM. In the case of `C=CCn1c(=N)c(C(=O)NC2CCCCC2)cc2c(=O)n3cccc(C)c3nc21` it was 1.04 µM; in that of `COc1cc(C(F)(F)F)nc2c(CNCCCNc3cc(=O)c4ccccc4[nH]3)scc12`, 1.18 µM.

In turn, `N#Cc1ccc(OCCN(Cc2ccccc2C(F)(F)F)c2ccc(C#N)c(C(F)(F)F)c2)cc1` returned an IC50 of 0.28 µM. As for `COCCNC(=O)c1ccc(OC2CCN(CC(C)=Cc3ccccc3)CC2)c(Cl)c1`, the IC50 worked out at 0.65 µM. Next, `COc1cc(C(=O)Nc2cccc(-c3nc4ccccc4[nH]3)c2)ccc1OC(C)=O`: 0.76 µM. For the compound `OC(CNC1CCCCC1)Cn1c2ccc(Br)cc2c2cc(Br)ccc21` (stereo not drawn), the IC50 was 0.3 µM. Next, `CC(CNc1ccnc(Nc2ccc3[nH]c(=O)[nH]c3c2)n1)c1ccccc1` (stereo not drawn): 0.7 µM; `O=C(NCCCCN1CCN(CC=Cc2ccccc2)CC1)c1ccc(NC(=O)c2cc(Cl)cc(Cl)c2)cc1`: 0.21 µM.

In the case of `O=C(Nc1cccc(-c2ccc(-c3nc4ccc(F)cc4[nH]3)cc2)c1)c1ccoc1`, the IC50 worked out at 0.96 µM. Next, `O=C(C=Cc1ccc(Cl)c(Cl)c1)NCCCCCN1CCCC(CCCNS(=O)(=O)c2cccc3cccnc23)C1` (stereo not drawn): 1 µM; `OCCCCCCN=Cc1[nH]c(=S)sc1O`: 0.85 µM. Next, `CC(C)C[C@H](NC(=O)c1cc2ccccc2s1)C(=O)N[C@H]1CCN(Cc2ccc(OC[C@@H]3CCCN3C)c3ccccc23)C1`: 1.16 µM; `O=C(NCCc1ccccc1)N(Cc1ccccc1-c1ccc(CNC2CCCC2)cc1)C1CCN(Cc2ccccc2)CC1`: 1.13 µM.

Compound `O=C(C=Cc1ccc(Cl)c(Cl)c1)NCCCCCN1CCC(c2[nH]nc3ccccc23)CC1` gave a half-maximal inhibitory concentration (IC50) of 0.64 µM. Next, `CCNc1cc(C(=O)N[C@@H](Cc2ccccc2)[C@H](O)CNC(C)Cc2cccc(Cl)c2)cc(N2CCCCS2(=O)=O)c1` (stereo partly drawn): 0.5 µM; `COc1ccc(CNCc2cccc(-c3ccc(-c4nc5ccc(C(F)(F)F)cc5[nH]4)cc3)c2)cc1`: 0.13 µM; `CCOC(=O)C(Oc1ccc2ccccc2c1)C(=O)OCC`: 0.76 µM. Next, `CN1CCC(C(=O)Nc2ccc(-c3ccc(-c4nc5ccccc5[nH]4)s3)cc2)CC1`: 0.82 µM; `CN(CCCNCc1ccc2ccccc2c1)CCCNCc1ccc2ccccc2c1`: 0.39 µM; `c1ccc(Oc2ccc(Nc3ccnc(Nc4ccc(OCCN5CCCCC5)cc4)n3)cc2)cc1`: 0.6 µM.

`COc1ccccc1CCNc1nc(C)cc(N[C@@H](Cc2ccccc2)C(=O)NCCCOC(C)C)n1`: the IC50 was 0.86 µM. Next, `NC1=NC(c2ccccc2)N(c2ccccc2)C(N)=N1` (stereo not drawn): 0.29 µM. Next, `OC(CNCc1ccccc1OCc1ccccc1)c1cccc(Br)c1` (stereo not drawn): 0.64 µM; `CN1CCC(Oc2cc(CN3CC[C@H](NC(=O)c4ccc(Cl)c(Cl)c4)C3)ccc2I)C1` (stereo partly drawn): 0.84 µM; `O=C(Nc1ccc(N2CCN(Cc3ccccc3Cl)CC2)cc1)c1ccc([N+](=O)[O-])o1`: 0.97 µM. In the case of `O=C(Cc1cnc[nH]1)Nc1cccc(-c2cccc(-c3nc4ccccc4[nH]3)c2)c1` it was 1.02 µM; in that of `O=c1cc(NCCCNCc2cccc(OC(F)(F)F)c2)[nH]c2ccccc12`, 0.85 µM. `CCNc1cc(C)nc(Nc2ccc(NC(=O)c3ccccc3Br)cc2)n1` gave an IC50 of 0.74 µM. Regarding `Cc1cc(O)c(C(C)C)cc1C1(c2cc(C(C)C)c(O)cc2C)OC(=O)c2ccccc21`, the 50% inhibitory concentration (IC50) was found to be 0.87 µM.

For `COc1ccccc1C(=O)N1CCN(Cc2cccs2)CC1`, the half-maximal inhibitory concentration (IC50) was 0.87 µM. In the case of `O=C(NCc1cccc(C(F)(F)F)c1)[C@@H]1CCCN1C(=O)c1ccc(O)c(-c2ccc(Cl)c(Cl)c2)c1` it was 0.79 µM; in that of `COc1c(O)cc2oc(-c3ccc(O)cc3)cc(=O)c2c1O`, 0.77 µM. Next, `O=C(Nc1ccc(Cl)cc1)c1ccc(CN2CCCN(Cc3ccc(F)cc3)CC2)cc1`: 0.97 µM.

In turn, `CCc1ccc(CN(Cc2ccc(C)cc2)Cc2ccc(NC(C)=O)cc2)cc1` displayed a half-inhibitory concentration (IC50) of 0.96 µM. In the case of `O=c1c(NCCCN(Cc2ccc(F)cc2)c2ccccn2)c(NCc2ccncc2)c1=O` it was 0.15 µM; in that of `Clc1cc(Nc2ncnc3cc(C#C[C@H]4CCCN4)sc23)cc2[nH]c(Cc3ccccc3)nc12`, 0.85 µM.

In turn, `CC(CCc1ccccc1)NCC(O)c1cccc([N+](=O)[O-])c1` (stereo not drawn) yielded an IC50 of 0.86 µM. In the case of `COc1ccc(-c2ccc(CNCc3ccccc3)cc2)cc1S(=O)(=O)NCCN1CCCC1` it was 0.73 µM; in that of `CCCCOc1cc2c(cc1OCC)C(C=Cc1ccc(Cl)cc1Cl)=NCC2`, 0.4 µM.

On to `O=C(CCCCCNC(=O)c1ccc(O)c(-c2ccc(Cl)c(Cl)c2)c1)NCCN1CCCC1`, for which the IC50 amounted to 0.98 µM.

On to `CN1CCN(Cc2cccc(-c3ccc4c(Nc5ccc(Oc6cccnc6)cc5)ccnc4c3)c2)CC1`, for which the half-maximal inhibitory concentration (IC50) came out at 0.19 µM.

The compound `Cc1cccc(/C=C/C(=O)NC2CCC(N3CCC(c4ccccc4C)CC3)CC2)c1` (stereo not drawn) had an IC50 of 1.11 µM. In the case of `COc1cc(CNc2ccc(N3CCCC3)cc2)cc(Cl)c1OC` it was 0.7 µM.

Consider `N#Cc1c(Cl)cccc1Oc1ccc(S(=O)(=O)N2CCC(CN3CCC(c4c[nH]c5ccccc45)CC3)CC2)cc1`, for which the IC50 amounted to 0.75 µM.

`O=C(Nc1ccc(OC2CCN(Cc3ccc(F)cc3)CC2)cc1)c1cccs1` yielded a half-inhibitory concentration (IC50) of 0.97 µM.

Take `CCCC(=O)Nc1ccc(OCCCN(Cc2cccc(C(F)(F)F)c2)c2ccc(C#N)c(C(F)(F)F)c2)cc1`: the 50% inhibitory concentration (IC50) was 1.09 µM. In the case of `O=C(/C=C/c1ccc(Cl)c(Cl)c1)NCCCCCN1CCCN(C(=O)Nc2ccc(Cl)c(C(F)(F)F)c2)CC1` it was 0.73 µM; in that of `CCN1CCN(c2cc(C)c3cc(NC(=O)c4ccc(OC)c(OC)c4)ccc3n2)CC1`, 1.03 µM. Next, `Cc1cc(NCCC(=O)Nc2ccccc2)nc(NCc2ccccc2C)n1`: 0.66 µM.

As for `COc1cc(NCC(O)CNc2cc(Cl)nc3ccccc23)nc2ccccc12` (stereo not drawn), the IC50 amounted to 0.42 µM. In the case of `CCN(CCCN1CCCCC1)c1cc(C)nc(Nc2cc(F)cc(F)c2)n1` it was 0.57 µM; in that of `CC(=O)c1c(Cc2ccccc2Cl)c[nH]c1C`, 0.85 µM; in that of `CNC(=O)c1cnc(Nc2ccc(OCC(O)CN(C)C)cc2)nc1Nc1cccc([N+](=O)[O-])c1` (stereo not drawn), 0.62 µM. Next, `O=C(NCCN1CCCCC1)c1cccc(Nc2nccc(Nc3ccc(Oc4ccccc4)cc3)n2)c1`: 0.27 µM; `COc1c(CCNCCCCNCCc2cc(Cl)c3ccccc3c2OC)cc(Cl)c2ccccc12`: 0.17 µM. In the case of `CCNc1cc(C(=O)N[C@@H](Cc2cccc(Cl)c2)[C@H](O)CNC(C)CCCC(C)C)cc(N2CCCCS2(=O)=O)c1` (stereo partly drawn) it was 0.29 µM; in that of `COc1ccc2ncc(F)c(CCN3CC[C@@H](CNCc4cc5c(cn4)OCS5)C3)c2n1`, 1.16 µM; in that of `CN1CCN(CC(=O)Nc2ccc(-c3ccc(-c4nc5ccccc5[nH]4)s3)cc2)CC1`, 0.3 µM. `CCCNC(=O)Nc1ccc(N(C)c2ccnc(NC3CC3)n2)cc1` displayed a half-inhibitory concentration (IC50) of 0.62 µM. For the compound `COc1cc2nc(N3CCC(CNC(=O)c4ccc(-c5ccc(C(=O)N(C)C)cc5O)cc4)CC3)nc(N)c2cc1OC`, the concentration for half-maximal inhibition (IC50) is 0.28 µM. In the case of `Cc1cc(OCc2ccncc2)cc2c1C(=O)CC(C)(C)O2` it was 0.18 µM; in that of `O=[N+]([O-])c1cccc(C=NNc2ccnc3ccc(C(F)(F)F)cc23)c1`, 1.09 µM; in that of `O=C(c1ccc([N+](=O)[O-])o1)N1CCN(c2nc3c(Cl)cccc3s2)CC1`, 0.98 µM.
